{"source": "patent US10899759B2", "about": "“Positive allosteric modulators of the muscarinic acetylcholine receptor M1” (Vanderbilt University, priority 2016, dated 2021)", "key": {"[1]": {"system": "C57Bl/6 mice", "experiment": "Behavioral manifestations of seizure activity (modified Racine scoring)", "type": "in vivo", "settings": "100 mg/kg i.p., monitored up to 3 hr for seizure behavior", "experimental": "To evaluate induction of behavioral manifestation of seizure activity, C57Bl/6 mice received administration of vehicle or 100 mg/kg M1 PAM. Compounds were formulated in 10% Tween 80 (pH 7.0) at a concentration of 10 mg/ml and injected i.p. (n=3). Animals were monitored continuously and scored for behavioral manifestations of seizure activity at 5, 10, 15 and 30 min, and 1 and 3 hr. Behavioral manifestations of seizures were scored using a modified Racine scoring system (R. J. Racine, Modification of seizure activity by electrical stimulation. II. Motor seizure. Electroencephalogr. Clin. Neurophysiol. 32, 281 (March, 1972)). Briefly, a score of 0 represents no behavior alterations; score 1, immobility, mouth and facial movements, or facial clonus; score 2, head nodding, tail extension; score 3, forelimb clonus, repetitive movements; score 4, rearing and tonic clonic seizure; and score 5, continuous rearing and falling, severe generalized tonic clonic seizure."}, "[2]": {"experiment": "Brain tissue distribution study in Sprague-Dawley rat (IV cassette)", "type": "in vivo", "settings": "male, IV cassette 0.2 mg/kg per compound, 0.25 h post-dose", "procedure": "The plasma protein and nonspecific brain homogenate binding of certain compounds were determined in plasma or brain homogenate using contemporary equilibrium dialysis and employing HTDialysis™ Teflon dialysis chambers and cellulose membranes (MWCO 12-14 K) from HTDialysis (Gales Ferry, Conn.). Brain tissue homogenate was prepared by diluting one volume whole brain tissue with three volumes of phosphate buffer (pH 7.4). The mixture was then subjected to mechanical homogenation employing a Mini-Beadbeater™ and 1.0 mm Zirconia/Silica Beads from BioSpec Products (Bartlesville, Okla.). Plasma or brain homogenate was fortified with test article and mixed thoroughly for a final concentration of 5 μM for plasma and 1 μM for brain homogenate. Subsequently, 100 μL of the plasma- or brain homogenate-compound mixture was transferred to one side of a dialysis chamber with an accompanying 100 μL of phosphate buffer (pH 7.4) in the opposite side of the chamber. The plate block was sealed and incubated for 6 hours (37° C.) with shaking. Upon completion, aliquots from each chamber were matrix-matched with either plasma or brain homogenate (1:1, buffer side) or buffer (1:1, plasma or brain homogenate side) in a new 96-well plate, at which time the proteins and cell debris/membranes (for brain homogenate) were precipitated with ice-cold acetonitrile containing an internal standard (carbamazepine, 50 nM). The plate was centrifuged (3000 rcf, 10 min) and supernatants diluted (1:1, v/v) via transfer into a fresh 96-well plate containing deionized H2O; the plate was sealed in preparation for LC/MS/MS bioanalysis. The assay was performed in triplicate for each compound.\nA cassette of compounds (n=5/cassette) were formulated from 10 mmol L^−1 solutions prepared in DMSO. In order to reduce the absolute volume of DMSO that was administered, the compounds were combined and diluted with ethanol and PEG 400 to achieve a final concentration of 0.4 mg mL^−1 for each compound (2 mg mL^−1 total) administered in each cassette; the maximal dosing volume was 0.5 mL kg^−1 of each animal's body mass. The final dosing solutions consisted of approximately 10% ethanol, 40% PEG400, and 50% DMSO (v/v). Each cassette dose was administered IV via the jugular vein to one dual-cannulated (carotid artery and jugular vein) adult male Sprague-Dawley rat, each weighing between 250 and 350 g (Harlan, Indianapolis, Ind.) for a final dose of 0.2 mg kg^−1 per compound. Whole blood and dissected whole brains were collected at the time of euthanization (0.25 h post-dose), with the whole brain being removed and thoroughly rinsed with cold phosphate-buffered saline prior to freezing on dry ice. […]"}, "[3]": {"target": "T1, human mAChR M1 (Homo sapiens, UniProt P11229)", "T1 construct": "host or cells: CHO-K1", "T1 sequence (P11229 1-460)": "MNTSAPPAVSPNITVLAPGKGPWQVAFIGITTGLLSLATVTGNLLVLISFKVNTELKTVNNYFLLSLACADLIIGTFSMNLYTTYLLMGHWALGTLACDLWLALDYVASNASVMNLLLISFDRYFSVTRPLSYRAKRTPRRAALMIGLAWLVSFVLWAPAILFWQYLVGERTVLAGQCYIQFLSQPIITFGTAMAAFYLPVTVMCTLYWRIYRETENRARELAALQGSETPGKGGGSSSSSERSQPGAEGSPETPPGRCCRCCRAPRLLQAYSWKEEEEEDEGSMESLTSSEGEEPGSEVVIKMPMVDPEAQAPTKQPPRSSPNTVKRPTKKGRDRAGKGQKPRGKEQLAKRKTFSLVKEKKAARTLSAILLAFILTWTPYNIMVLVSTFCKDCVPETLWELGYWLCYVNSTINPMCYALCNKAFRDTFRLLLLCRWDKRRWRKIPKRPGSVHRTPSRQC", "experiment": "mAChR M1 cell-based functional assay (calcium mobilization, Fluo-4, FDSS)", "settings": "CHO-K1 cells stably expressing hM1", "how_it_was_run": "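CHO-K1 cells stably expressing muscarinic receptor, loaded with Fluo-4; 11-point 1:3 compound series added and calcium flux read over 300 s at 1 Hz. Agonism from direct calcium rise, PAM activity as potentiation of EC20 acetylcholine, antagonism as decrease of EC80 acetylcholine; four-parameter logistic fits.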"}}}
{"compound": "Cc1nc(-c2ccc(Cc3cc(C(=O)NC4CCOCC4)nc4c3ccn4C)cc2)co1", "note": "[Compound 53, 1-methyl-4-[[4-(2-methyloxazol-4-yl)phenyl]methyl]-N-tetrahydropyran-4-yl-pyrrolo[2,3-b]pyridine-6-carboxamide]", "values": [{"measurement": "Adverse Effect in mice (100 mpk, i.p.)", "setting": "[1]", "result": "No"}, {"measurement": "Kp uu at 0.25 h", "setting": "[2]; brain/plasma (unbound), unbound distribution partition coefficient", "result": 0.85}, {"measurement": "Kp at 0.25 h", "setting": "[2]; brain/plasma, distribution partition coefficient", "result": 0.51}, {"measurement": "Emax", "setting": "[3]; EC20 acetylcholine response, read-out: Human M1 Emax", "result": 86.4, "unit": "%"}, {"measurement": "EC50", "setting": "[3]; positive allosteric modulator activity as increase in the EC20 acetylcholine response", "result": 390, "unit": "nM"}]}
